The values that follow come from ChEMBL document CHEMBL1201862, “PubChem BioAssay data set” (2004).

Among the test systems are LOX IMVI; PC-3; MDA-N; Hs-578T; OVCAR-8; ACHN; SNB-19; KM12; SW-620; TK-10; T47D; RXF 393; 786-0; NCI-H23; HOP-92; SF-295; HCC 2998; A549; SR; SK-MEL-2.
What all share (assay): NCI-60 cell line screen, 48 h

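Method: 48-hour compound exposure of cells in 96-well plates, five concentrations, linear interpolation of endpoints. GI50 is the concentration that inhibits growth by half.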 Activity calls are given as the source filed them. No stated cut-off is given here; in the data, active = GI50 up to about 1.1 µM and inactive = higher.

As to `CCC(C)C(=O)O[C@H]1C(=O)O[C@@H]2C[C@H]3C(C)=CC(=O)[C@@H](O)[C@]3(C)[C@H]3[C@@H](O)[C@H](O)[C@@]4(C)OC[C@]32[C@@H]14` (stereo not given in full), the GI50 in the assay with LOX IMVI was < 0.0129 µM (active); with PC-3 it was < 0.01 µM (active); in the assay on MDA-N, < 0.01 µM (active); with Hs-578T it was < 0.01 µM (active); in the assay with OVCAR-8 it was < 0.0155 µM (active); in the assay on ACHN, < 0.0156 µM (active). In addition, the GI50 in the assay on SNB-19 was < 0.0143 µM (active); in the assay with KM12, < 0.0161 µM (active); with SW-620 it was < 0.0162 µM (active); in the assay with TK-10 it was < 0.0198 µM (active); with T47D it was < 0.01 µM (active); with RXF 393 it was 0.015 µM (active). The GI50 with 786-0 is < 0.0194 µM (active); with NCI-H23, < 0.01 µM (active); in the assay with HOP-92, < 0.0237 µM (active); with SF-295, < 0.0205 µM (active); in the assay with HCC 2998 it was < 0.0147 µM (active); in the assay with A549 it was 0.141 µM (active). Also, the GI50 with SR is 0.01 µM (active); with SK-MEL-2 it was < 0.0252 µM (active).

On to `COc1cc(C2c3cc4c(cc3OC(NNC(N)=S)C2C)OCO4)cc(OC)c1OC` (stereo not given), for which the GI50 in the assay with LOX IMVI was 0.412 µM (active); in the assay on PC-3 it was 0.302 µM (active); in the assay with MDA-N it was 0.084 µM (active); in the assay on Hs-578T it was 0.406 µM (active); in the assay on OVCAR-8 it was 0.411 µM (active); in the assay with ACHN, 0.989 µM (active). Moreover, the GI50 with SNB-19 is 0.471 µM (active); in the assay on KM12 it was 0.343 µM (active); in the assay on SW-620 it was 0.363 µM (active); in the assay with TK-10, 5.12 µM (inactive); in the assay on T47D it was 26.1 µM (inactive); in the assay with RXF 393 it was 0.279 µM (active). The GI50 in the assay with 786-0 is 0.398 µM (active); in the assay on NCI-H23 it was 0.38 µM (active); with HOP-92 it was 0.152 µM (active); in the assay with SF-295, 0.231 µM (active); in the assay with HCC 2998, 0.906 µM (active); in the assay on A549, 0.644 µM (active). The GI50 with SR is 0.0811 µM (active); with SK-MEL-2, 25.6 µM (inactive).

As for `CN1CCOC1(C)c1ccccc1` (stereo not given), the GI50 in the assay with LOX IMVI, in the assay with PC-3, in the assay with MDA-N, in the assay with Hs-578T, in the assay on OVCAR-8 and with ACHN was > 100 µM (inactive) in each case. In addition, the GI50 in the assay with SNB-19, in the assay with KM12, with SW-620, in the assay with TK-10, in the assay with T47D and in the assay with RXF 393 was > 100 µM (inactive) each time. Also, the GI50 in the assay with 786-0, in the assay with NCI-H23, in the assay on HOP-92, in the assay with SF-295, in the assay with HCC 2998 and in the assay with A549 was > 100 µM (inactive) in each case. For the same compound, the GI50 in the assay with SR and in the assay on SK-MEL-2 was > 100 µM (inactive) each time.

For `C/C(=N\OCC(O)CNCCSCc1ccccc1)c1ccccc1Cl` (stereo not given), the GI50 with LOX IMVI is 16.8 µM (inactive); with PC-3 it was 18.5 µM (inactive); in the assay with MDA-N it was 19.6 µM (inactive); in the assay on Hs-578T it was 27.7 µM (inactive); in the assay with OVCAR-8, 14.6 µM (inactive); with ACHN it was 18.1 µM (inactive). In addition, the GI50 in the assay with SNB-19 was 18.5 µM (inactive); with KM12 it was 18.6 µM (inactive); with SW-620, 20 µM (inactive); in the assay with TK-10, 17 µM (inactive); in the assay with T47D, 22.6 µM (inactive); in the assay on RXF 393 it was 18.7 µM (inactive). The GI50 with 786-0 is 21.4 µM (inactive); in the assay on NCI-H23, 37.5 µM (inactive); in the assay with HOP-92 it was 13.2 µM (inactive); in the assay on SF-295, 18.6 µM (inactive); in the assay on HCC 2998, 19.4 µM (inactive); in the assay on A549 it was 19.6 µM (inactive). Further, the GI50 in the assay on SR was 31.7 µM (inactive); in the assay on SK-MEL-2, 40.4 µM (inactive).

For the compound `CC(NNC(=O)c1ccncc1)c1ccc(Cl)cc1Cl` (stereo not given), the GI50 was 86.5 µM (inactive) in the assay with LOX IMVI; 59.8 µM (inactive) in the assay on PC-3; > 100 µM (inactive) with MDA-N; > 100 µM (inactive) in the assay with Hs-578T; > 100 µM (inactive) with OVCAR-8; > 100 µM (inactive) with ACHN. Also, the GI50 is > 100 µM (inactive) with SNB-19; 49.3 µM (inactive) with KM12; > 100 µM (inactive) with SW-620; > 100 µM (inactive) in the assay with TK-10; 51.9 µM (inactive) in the assay on T47D; > 100 µM (inactive) in the assay on RXF 393. Further, the GI50 is > 100 µM (inactive) in the assay with 786-0; > 100 µM (inactive) in the assay with NCI-H23; 70.6 µM (inactive) with HOP-92; 72.9 µM (inactive) in the assay on SF-295; > 100 µM (inactive) with HCC 2998; > 100 µM (inactive) in the assay on A549. Besides, the GI50 with SR was 55.3 µM (inactive); in the assay with SK-MEL-2, > 100 µM (inactive).

`O=C1Nc2ccccc2/C1=C1/Nc2ccccc2/C1=N/OCCO`: the GI50 was 0.69 µM (active) in the assay with LOX IMVI; 15.1 µM (inactive) in the assay on PC-3; 23 µM (inactive) in the assay with MDA-N; 6.14 µM (inactive) in the assay on Hs-578T; > 100 µM (inactive) with OVCAR-8; 0.352 µM (active) in the assay on ACHN. Besides, the GI50 with SNB-19 was > 100 µM (inactive); in the assay on KM12 it was 0.149 µM (active); in the assay with SW-620 it was 14 µM (inactive); with TK-10, 9.73 µM (inactive); in the assay with T47D, 5.62 µM (inactive); with RXF 393 it was 5.85 µM (inactive). Further, the GI50 was 13 µM (inactive) in the assay with 786-0; 0.656 µM (active) in the assay on NCI-H23; > 100 µM (inactive) in the assay on HOP-92; 17.3 µM (inactive) in the assay on SF-295; 24.8 µM (inactive) in the assay on HCC 2998; 1.52 µM (inactive) in the assay with A549. Moreover, the GI50 was 0.546 µM (active) with SR and 0.457 µM (active) in the assay with SK-MEL-2.

Consider `CCn1c(=N)sc2nc3ccccc3n2c1=O`, for which the GI50 with LOX IMVI, in the assay on PC-3, in the assay on MDA-N, with Hs-578T, in the assay with OVCAR-8 and in the assay on ACHN was > 100 µM (inactive) each time. Further, the GI50 in the assay with SNB-19, in the assay on KM12, in the assay on SW-620, in the assay on TK-10, in the assay on T47D and in the assay on RXF 393 was > 100 µM (inactive) throughout. Further, the GI50 in the assay with 786-0, in the assay with NCI-H23, with HOP-92, in the assay on SF-295, with HCC 2998 and with A549 was > 100 µM (inactive) in each case. In addition, the GI50 in the assay on SR and in the assay with SK-MEL-2 was > 100 µM (inactive) in each case.

Take `O=C(NCCOC(=O)OCCNC(=O)NC1CCCCC1)NC1CCCCC1`: the GI50 in the assay with LOX IMVI, with PC-3, in the assay on MDA-N, in the assay on Hs-578T, in the assay with OVCAR-8 and in the assay with ACHN was > 100 µM (inactive) each time. In addition, the GI50 was > 100 µM (inactive) in the assay on SNB-19; > 100 µM (inactive) in the assay with KM12; > 100 µM (inactive) in the assay on SW-620; > 100 µM (inactive) with TK-10; > 100 µM (inactive) in the assay with T47D; 72.6 µM (inactive) with RXF 393. Further, the GI50 is > 100 µM (inactive) in the assay with 786-0; 80.2 µM (inactive) in the assay with NCI-H23; 27.1 µM (inactive) in the assay with HOP-92; > 100 µM (inactive) in the assay on SF-295; > 100 µM (inactive) in the assay on HCC 2998; > 100 µM (inactive) in the assay on A549. For the same compound, the GI50 with SR and in the assay on SK-MEL-2 was > 100 µM (inactive) throughout.

Turning to `S=C(NCCc1ccccn1)c1nc[nH]c1C(=S)NCCc1ccccn1`, the GI50 in the assay on LOX IMVI was 20.7 µM (inactive); in the assay on PC-3, 39.2 µM (inactive); in the assay on MDA-N, 41.7 µM (inactive); with Hs-578T it was 20.7 µM (inactive); with OVCAR-8, 28.4 µM (inactive); in the assay on ACHN it was 36.3 µM (inactive). The GI50 with SNB-19 is 60.3 µM (inactive); in the assay with KM12 it was 24 µM (inactive); with SW-620, 32.5 µM (inactive); in the assay with TK-10, 62.1 µM (inactive); with T47D, 23.5 µM (inactive); in the assay on RXF 393, 23 µM (inactive). Also, the GI50 in the assay with 786-0 was 53.3 µM (inactive); in the assay on NCI-H23 it was 39.4 µM (inactive); with HOP-92 it was 53.6 µM (inactive); with SF-295 it was 25.1 µM (inactive); in the assay with HCC 2998 it was 76.9 µM (inactive); in the assay on A549, 32.3 µM (inactive). Also, the GI50 was 34 µM (inactive) in the assay on SR and 47.8 µM (inactive) in the assay on SK-MEL-2.

For `CN(C)c1nc2n(CCO)c(-c3ccccc3)c(-c3ccccc3)nc-2c(=O)n1`, the GI50 with LOX IMVI, in the assay on PC-3, in the assay with MDA-N, with Hs-578T, with OVCAR-8 and in the assay with ACHN was > 100 µM (inactive) each time. In addition, the GI50 in the assay on SNB-19, in the assay with KM12, in the assay with SW-620, with TK-10, in the assay on T47D and in the assay with RXF 393 was > 100 µM (inactive) throughout. The GI50 with 786-0, in the assay on NCI-H23, in the assay with HOP-92, in the assay with SF-295, in the assay on HCC 2998 and with A549 was > 100 µM (inactive) each time. Further, the GI50 in the assay with SR and in the assay with SK-MEL-2 was > 100 µM (inactive) each time.
